The values that follow are results of earlier work, collected in patent US20210319872A1, “DRUG AND DEVICE COMBINATION PRODUCTS WITH IMPROVED SAFETY AND EFFICACY PROFILES” (priority 2016, published 2021).

Molecules are shown by their SMILES. Read-outs that look alike come from different tables or passages of the source.

As for `O=C(O)C(O)C(O)C(=O)O.c1cnc2cc3c(cc2n1)[C@@H]1CNC[C@H]3C1` [Chantix], for the setting “in vivo”, the Acquired night blindness entry is reported as “Ophthalmic: Acquired night blindness (rare), Blurred vision”; the Angina result is “Cardiovascular: Angina (2.3%), Myocardial infarction (2%)”; the Constipation entry was “Gastrointestinal: Constipation (5% to 8%), Flatulence (6% to 9%),”; the Depression result is given as “Psychiatric: Abnormal behavior, Depression (3.5% to 11%),”. Moreover, under “in vivo”, the Dream disorder entry is listed as “Neurologic: Dream disorder (9% to 13%), Headache (11% to 19%),”; the Flatulence result is listed as “Gastrointestinal: Constipation (5% to 8%), Flatulence (6% to 9%),”; the Headache entry was “Neurologic: Dream disorder (9% to 13%), Headache (11% to 19%),”; the Hostile behavior entry is on record as “Hostile behavior (2%), Mood disorder (2.3%), Suicidal behavior,”. Further, where the note is “in vivo”, the Insomnia result is listed as “Insomnia (10% to 19%)”; the Mood disorder entry is “Hostile behavior (2%), Mood disorder (2.3%), Suicidal behavior,”; the Myocardial infarction result is listed as “Cardiovascular: Angina (2.3%), Myocardial infarction (2%)”; the Nausea result is listed as “Nausea (30%), Vomiting (5% to 11%)”. For the same molecule, under “in vivo”, the Retinal vascular disorder result was “(infrequent), Retinal vascular disorder (rare), Subcapsular cataract”; the “Serious side effect, Neurologic” value was “Neurologic: Cerebrovascular accident”; the “Serious side effect, Psychiatric” value is “Psychiatric: Abnormal behavior, Depression (3.5% to 11%),”; the Subcapsular cataract result is listed as “(rare), Transient blindness (rare), Visual disturbance (infrequent)”. For the same molecule, for the setting “in vivo”, the “Suicidal behavior, and/or ideation” value is “and/or ideation (6% to 11%)”; the Transient blindness entry was “(rare), Transient blindness (rare), Visual disturbance (infrequent)”; the Visual disturbance entry is “(rare), Transient blindness (rare), Visual disturbance (infrequent)”; the Vomiting result is “Nausea (30%), Vomiting (5% to 11%)”.
Regarding `NS(=O)(=O)c1cc(C2(O)NC(=O)c3ccccc32)ccc1Cl` (stereo not drawn) [Chlorthalidone (Hygroton)], the “Common side effect listed (incidence not given)” value (in vivo) is on record as “Endocrine metabolic: Hyperuricemia”.
As for `CN(C)CCCC1(c2ccc(F)cc2)OCc2cc(C#N)ccc21` (stereo not drawn) [Citalopram (Celexa)], for the setting “in vivo”, the Agitation entry is recorded as “Psychiatric: Agitation (3% to 10%)”; the Cerebrovascular accident result is “Neurologic: Cerebrovascular accident (0.1% to less than 1%)”; the Constipation entry was “Gastrointestinal: Constipation (13%), Diarrhea (8%), Nausea (20%”; the Diaphoresis entry is recorded as “Dermatologic: Diaphoresis (5% to 18%)”. Where the note is “in vivo”, the Diarrhea result was “Gastrointestinal: Constipation (13%), Diarrhea (8%), Nausea (20%”; the Disorder of ejaculation entry is on record as “Reproductive: Disorder of ejaculation (6.1%)”; the Dizziness result is reported as “Neurologic: Dizziness (14%), Headache (18%), Insomnia (15%),”; the Fatigue result is given as “Other: Fatigue (5%)”. Besides, under “in vivo”, the Headache entry is given as “Neurologic: Dizziness (14%), Headache (18%), Insomnia (15%),”; the Insomnia entry is listed as “Neurologic: Dizziness (14%), Headache (18%), Insomnia (15%),”; the Myocardial infarction entry is reported as “Cardiovascular: Myocardial infarction (0.1% to 1%), Prolonged QT”; the Nausea entry is listed as “Gastrointestinal: Constipation (13%), Diarrhea (8%), Nausea (20%”. In addition, under “in vivo”, the “Prolonged QT interval” value is given as “interval (0.5% to 1.9%), Torsades de pointes”; the Sedated entry is on record as “Sedated (15%), Somnolence (18%), Tremor (8% to 16%)”; the Somnolence result is given as “Sedated (15%), Somnolence (18%), Tremor (8% to 16%)”; the Tremor entry is recorded as “Sedated (15%), Somnolence (18%), Tremor (8% to 16%)”. Besides, under “in vivo”, the Vomiting result is “to 21%), Vomiting (4% to 20%), Xerostomia (17% to 20%)” and the Xerostomia result is given as “to 21%), Vomiting (4% to 20%), Xerostomia (17% to 20%)”.
Consider `COC(=O)[C@H](c1ccccc1Cl)N1CCc2sccc2C1` [Clopidogrel (Plavix ®)], for which, under “in vivo”, the Agranulocytosis entry is “Hematologic: Agranulocytosis (Less than 1%), Aplastic anemia”; the Aplastic anemia result is reported as “(less then 1%), Bleeding, Major (0.8% to 3.7%), Pancytopenia”; the “Bleeding, Major” value is given as “(less then 1%), Bleeding, Major (0.8% to 3.7%), Pancytopenia”; the “Bleeding, Non-major” value is “Hematologic: Bleeding, Non-major (3.6% to 5.1%)”. Besides, under “in vivo”, the Gastrointestinal hemorrhage entry was “Gastrointestinal: Colitis, Gastrointestinal hemorrhage (2%; 2.7%” and the Intraocular hemorrhage entry is “Ophthalmic: Intraocular hemorrhage (0.05%)”.
As to `COc1ccc2c3c1O[C@H]1[C@@H](O)C=C[C@H]4[C@@H](C2)N(C)CC[C@@]341` [Codeine], under “in vivo”, the “Common side effect, Gastrointestinal” value is given as “Gastrointestinal: Constipation, Nausea, Vomiting”; the “Common side effect, Neurologic” value was “Neurologic: Dizziness, Lightheadedness, Sedated, Somnolence”; the “Common side effect, Respiratory” value was “Respiratory: Dyspnea”; the “Serious side effect, Cardiovascular” value is recorded as “Cardiovascular: Hypotension”. Under “in vivo”, the “Serious side effect, Gastrointestinal” value was “Gastrointestinal: Bowel obstruction, Pancreatitis”; the “Serious side effect, Neurologic” value is “Neurologic: CSF pressure: raised, Seizure”; the “Serious side effect, Respiratory” value is given as “Respiratory: Respiratory depression”.
For the molecule `Cn1c(CNc2ccc(C(=N)N)cc2)nc2cc(C(=O)N(CCC(=O)O)c3ccccn3)ccc21` [Dabigatran (Pradaxa)], where the note is “in vivo”, the Bleeding result was “prophylaxis, 10.5%; nonvalvular atrial fibrillation, 16.6%)”; the “Bleeding, Major” value is given as 0.3% to 1.4%; nonvalvular atrial fibrillation, 3.3%), Thrombosis; the Gastroesophageal reflux disease entry is recorded as “disease (Atrial fibrillation, 5.5%), Gastrointestinal hemorrhage”; the Indigestion result is given as “pulmonary embolism, 7.5%)”. Besides, where the note is “in vivo”, the Myocardial infarction result is “embolism, 0.32% to 0.66%; nonvalvular atrial fibrillation, 0.7%)”.
`O=C(Nc1c(Cl)cncc1Cl)c1ccc(OC(F)F)c(OCC2CC2)c1` [Daliresp]: where the note is “in vivo”, the Backache entry was “Musculoskeletal: Backache (3.2%)”, the Decrease in appetite was 2.1%, the Diarrhea is reported as 9.5% and the Dizziness is listed as 2.1%. Moreover, under “in vivo”, the Headache is recorded as 4.4%, the Influenza result is reported as “Immunologic: Influenza (2.8%)”, the Insomnia is 2.4% and the Nausea result is on record as “Nausea (4.7%)”. Also, the “Serious side effect, Psychiatric” value (listed without frequency) was “Psychiatric: Suicidal thoughts”.
With `C[C@H]1O[C@@H](O[C@H]2[C@@H](O)C[C@H](O[C@H]3[C@@H](O)C[C@H](O[C@H]4CC[C@@]5(C)[C@H](CC[C@@H]6[C@@H]5CC[C@]5(C)[C@@H](C7=CC(=O)OC7)CC[C@]65O)C4)O[C@@H]3C)O[C@@H]2C)C[C@H](O)[C@@H]1O` [Digitoxin], for the setting “in vivo”, the “Common side effects, listed without incidence” value is “Enlarged Breasts” and the “Infrequent side effects, listed” value was “Sinus Bradycardia”.
As for `COc1ccc([C@@H]2Sc3ccccc3N(CCN(C)C)C(=O)[C@@H]2OC(C)=O)cc1` [Diltiazem (Cardizem, Tiazac)], under “in vivo”, the Bradyarrhythmia entry is “Cardiovascular: Bradyarrhythmia (1.7% to 3.6%), Peripheral”; the Congestive heart failure result was “Cardiovascular: Congestive heart failure (less than 2%), Heart”; the Cough entry was “Respiratory: Cough (2%)”; the Dizziness entry is listed as “Neurologic: Dizziness (3.5% to 6.4%), Headache (4.6%)”. Also, under “in vivo”, the Fatigue entry is “Other: Fatigue (4.8%)”; the Headache entry is recorded as “Neurologic: Dizziness (3.5% to 6.4%), Headache (4.6%)”; the Peripheral edema result is given as “edema (4.6% to 8%)”.
With `OCCN(CCO)c1nc(N2CCCCC2)c2nc(N(CCO)CCO)nc(N3CCCCC3)c2n1` [Dipyridamole], where the note is “IV”, the Bronchospasm result is on record as “Respiratory: Bronchospasm (IV, 0.2%)”; the Chest pain entry is reported as “Cardiovascular: Chest pain (IV, up to 30%), Electrocardiogram”; the Dizziness is reported as 11.8%; the Flushing was 3.4%. Under “IV”, the Myocardial infarction is listed as 0.1% and the Ventricular tachycardia entry is “tachycardia (IV, 0.2%)”. Also, for the setting “oral”, the Abdominal discomfort result was “Gastrointestinal: Abdominal discomfort (oral, 6.1%)”; the Dizziness was 13.6%; the Headache is reported as 2.3%; the Rash is given as 2.3%.
In the case of `CCCC(CCC)C(=O)O.CCCC(CCC)C(=O)[O-].[Na+]` [Divalproex (Depakote)], under “in vivo”, the Asthenia entry is reported as “Neurologic: Asthenia (6% to 27%), Dizziness (up to 25%), Feeling”; the Backache is reported as 1% to less than 5%; migraine, 8%); the “Common side effects, listed without incidence” value is recorded as “Ophthalmic: Amblyopia, Blurred vision, Diplopia (16%)”; the Diplopia entry was “Ophthalmic: Amblyopia, Blurred vision, Diplopia (16%)”. Further, under “in vivo”, the Dizziness result is “Neurologic: Asthenia (6% to 27%), Dizziness (up to 25%), Feeling”; the Feeling nervous entry is on record as “nervous (up to 11%), Headache (31%), Insomnia (up to 15%),”; the Headache result is “nervous (up to 11%), Headache (31%), Insomnia (up to 15%),”; the Indigestion is listed as 23%), Indigestion (8% to 11%), Loss of appetite (4% to 12%),. Also, under “in vivo”, the Infectious disease result is “Other: Infectious disease (12% to 20%), Influenza (12%)”; the Influenza entry is given as “Other: Infectious disease (12% to 20%), Influenza (12%)”; the Insomnia result was “nervous (up to 11%), Headache (31%), Insomnia (up to 15%),”; the Nausea result is on record as “Nausea (26% to 48%), Vomiting (15% to 27%)”. Under “in vivo”, the Ototoxicity - deafness entry was “Otic: Ototoxicity - deafness (greater than 1% to less than 5%)”; the Palpitations result is recorded as “Cardiovascular: Palpitations (greater than 1% to less than 5%),”; the Pancreatitis result is reported as “Gastrointestinal: Pancreatitis (greater than 1% to less than 5%)”; the Somnolence entry is “Somnolence (Adult, 7% to 30%; pediatric, greater than 5%),”. Further, where the note is “in vivo”, the Tachycardia entry is reported as “Tachycardia (greater than 1% to less than 5%)”; the “Thrombocytopenia, Dose-related” value is reported as “Dose-related (1% to 27%)”; the Tremor entry is given as “Tremor (1% to 57%)”; the Vomiting result is “Nausea (26% to 48%), Vomiting (15% to 27%)”.
